Experimental data taken from ChEMBL document CHEMBL1149282, “A systematic approach to the optimization of substrate-based inhibitors of the hepatitis C virus NS3 protease: discovery of potent and specific tripeptide inhibitors” (J Med Chem, 2004).
Square brackets hold non-standard residues; d marks the D form. Peptide text beside a SMILES is read from it. * marks the point of attachment. Hyp(2-Ph-quinolin-4-yl) = O=C(O)[C@@H]1C[C@@H](Oc2cc(-c3ccccc3)nc3ccccc23)CN1; Hyp(quinolin-4-yl) = O=C(O)[C@@H]1C[C@@H](Oc2ccnc3ccccc23)CN1; Ac3c(1R,2S-2-vinyl) = C=C[C@@H]1C[C@]1(N)C(=O)O; Hyp = O=C(O)[C@@H]1C[C@@H](O)CN1; Chg = N[C@H](C(=O)O)C1CCCCC1; X1 = c1ccc2cc(C*)ccc2c1

How the values were obtained:
Hepatitis C virus = experiment: Antiviral activity in Huh7 cells containing sub-genomic HCV subtype 1b replicon by RT-PCR; format: functional, organism-based, Hepacivirus hominis; conditions: genotype 1b, Huh-7
[1] = Inhibition of HCV NS3 protease; design: species or system Hepacivirus hominis
Neutrophil elastase = molecular target: T1, Neutrophil elastase (Homo sapiens, UniProt P08246); experiment: Inhibition of human leucocyte elastase
T1 sequence (P08246 whole entry): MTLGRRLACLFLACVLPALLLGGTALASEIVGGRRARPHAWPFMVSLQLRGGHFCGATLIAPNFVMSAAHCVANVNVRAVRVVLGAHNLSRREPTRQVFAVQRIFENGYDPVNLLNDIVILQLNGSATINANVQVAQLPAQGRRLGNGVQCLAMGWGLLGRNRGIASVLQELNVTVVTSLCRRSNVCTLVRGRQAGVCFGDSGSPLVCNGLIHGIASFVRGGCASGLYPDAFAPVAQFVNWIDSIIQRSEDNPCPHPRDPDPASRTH

Cathepsin B = Cathepsin B (Homo sapiens, UniProt P07858); experiment: Inhibition of human cathepsin B

| IC50 [1] [nM] | SMILES | also measured |
| --- | --- | --- |
| 24 | C=C[C@@H]1C[C@]1(NC(=O)[C@@H]1C[C@@H](Oc2cc(-c3ccccc3)nc3cc(OC)ccc23)CN1C(=O)[C@@H](NC(=O)OC1CCC1)C(C)(C)C)C(=O)O | EC50 (Hepatitis C virus): 960 nM |
| 5 | C=C[C@@H]1C[C@]1(NC(=O)[C@@H]1C[C@@H](Oc2cc(-c3ccccc3)nc3cc(OC)ccc23)CN1C(=O)[C@@H](NC(=O)NC1CCCC1)C(C)(C)C)C(=O)O | EC50 (Hepatitis C virus): 910 nM |
| > 1000 | C=C[C@@H]1C[C@]1(NC(=O)[C@@H]1C[C@@H](Oc2cc(-c3ccccc3)nc3cc(C(=O)O)ccc23)CN1C(=O)[C@@H](NC(=O)OC(C)(C)C)C(C)(C)C)C(=O)O | – |
| 150 | C=C[C@@H]1C[C@]1(NC(=O)[C@@H]1C[C@@H](Oc2cc(-c3ccccc3)nc3ccccc23)CN1C(=O)[C@@H](NC(=O)OC(C)(C)C)C(C)(C)C)C(=O)O | – |
| 139 | C=C[C@@H]1C[C@]1(NC(=O)[C@@H]1C[C@@H](Oc2cc(-c3ccccc3)nc3cc(SC)ccc23)CN1C(=O)[C@@H](NC(=O)OC(C)(C)C)C(C)(C)C)C(=O)O | – |
| 37 | C=C[C@@H]1C[C@]1(NC(=O)[C@@H]1C[C@@H](Oc2cc(-c3ccccc3)nc3cc(OC)ccc23)CN1C(=O)[C@@H](NC(=O)CC1CCCCC1)C(C)(C)C)C(=O)O | – |
| 790 | C=C[C@@H]1C[C@]1(NC(=O)[C@@H]1C[C@@H](Oc2cc(-c3ccccc3)nc3cc(OC(F)(F)F)ccc23)CN1C(=O)[C@@H](NC(=O)OC(C)(C)C)C(C)(C)C)C(=O)O | – |
| 600 | C=C[C@@H]1C[C@]1(NC(=O)[C@@H]1C[C@@H](OCc2ccc3ccccc3c2)CN1C(=O)[C@@H](NC(=O)[C@@H](NC(C)=O)C1CCCCC1)C(C)C)C(=O)O (Ac-[Chg]V[Hyp](X1)[Ac3c(1R,2S-2-vinyl)]-OH) | – |
| 29 | C=C[C@@H]1C[C@]1(NC(=O)[C@@H]1C[C@@H](Oc2cc(-c3ccccc3)nc3cc(OC)ccc23)CN1C(=O)[C@@H](NC(=O)OC(C)(C)C)C(C)(C)C)C(=O)O | EC50 (Hepatitis C virus): 660 nM; IC50 (Neutrophil elastase): > 75000 nM |
| 37 | C=C[C@@H]1C[C@]1(NC(=O)[C@@H]1C[C@@H](Oc2cc(-c3ccccc3)nc3cc(OC)ccc23)CN1C(=O)[C@@H](NC(=O)[C@@H](C)C1CCCCC1)C(C)(C)C)C(=O)O | – |
| 8 | C=C[C@@H]1C[C@]1(NC(=O)[C@@H]1C[C@@H](Oc2cc(-c3ccccc3)nc3cc(OC)ccc23)CN1C(=O)[C@@H](NC(=O)NC(C)(C)C)C(C)(C)C)C(=O)O | EC50 (Hepatitis C virus): 1220 nM |
| 1 | C=C[C@@H]1C[C@]1(NC(=O)[C@@H]1C[C@@H](Oc2cc(-c3ccccc3)nc3cc(OC)ccc23)CN1C(=O)[C@@H](NC(=O)[C@@H](NC(C)=O)C1CCCCC1)C(C)(C)C)C(=O)O | – |
| 29 | C=C[C@@H]1C[C@]1(NC(=O)[C@@H]1C[C@@H](Oc2cc(-c3ccccc3)nc3cc(NC(C)=O)ccc23)CN1C(=O)[C@@H](NC(=O)OC(C)(C)C)C(C)(C)C)C(=O)O | – |
| 5 | C=C[C@@H]1C[C@]1(NC(=O)[C@@H]1C[C@@H](Oc2cc(-c3ccccc3)nc3c(OC)cccc23)CN1C(=O)[C@@H](NC(=O)[C@@H](NC(C)=O)C1CCCCC1)C(C)C)C(=O)O | – |
| 557 | C=C[C@@H]1C[C@]1(NC(=O)[C@@H]1C[C@@H](Oc2cc(-c3ccccc3)nc3cccc(OC)c23)CN1C(=O)[C@@H](NC(=O)[C@@H](NC(C)=O)C1CCCCC1)C(C)C)C(=O)O | – |
| 350 | C=C[C@@H]1C[C@]1(NC(=O)[C@@H]1C[C@@H](Oc2cc(-c3ccccc3)nc3cc(Br)ccc23)CN1C(=O)[C@@H](NC(=O)OC(C)(C)C)C(C)(C)C)C(=O)O | – |

| IC50 [1] [nM] | SMILES | also measured |
| --- | --- | --- |
| 14 | C=C[C@@H]1C[C@]1(NC(=O)[C@@H]1C[C@@H](Oc2cc(-c3ccccc3)nc3cc(OC)ccc23)CN1C(=O)[C@@H](NC(=O)OC1CCCC1)C(C)(C)C)C(=O)O | – |
| 18 | C=C[C@@H]1C[C@]1(NC(=O)[C@@H]1C[C@@H](Oc2cc(-c3ccccc3)nc3cc(OC)ccc23)CN1C(=O)[C@@H](NC(=O)[C@@H](N)C1CCCCC1)C(C)(C)C)C(=O)O | – |
| 205 | C=C[C@@H]1C[C@]1(NC(=O)[C@@H]1C[C@@H](Oc2cc(-c3ccccc3)nc3cc(OC)ccc23)CN1C(=O)[C@@H](NC(=O)N(C)C(C)(C)C)C(C)(C)C)C(=O)O | – |
| 9 | C=C[C@@H]1C[C@]1(NC(=O)[C@@H]1C[C@@H](Oc2cc(-c3ccccc3)nc3cc(OC)ccc23)CN1C(=O)[C@@H](NC(=O)NC1CCCCC1)C(C)(C)C)C(=O)O | EC50 (Hepatitis C virus): 2900 nM |
| 10 | C=C[C@@H]1C[C@]1(NC(=O)[C@@H]1C[C@@H](Oc2ccnc3cc(OC)ccc23)CN1C(=O)[C@@H](NC(=O)[C@@H](NC(C)=O)C1CCCCC1)C(C)C)C(=O)O | – |
| 41 | C=C[C@@H]1C[C@]1(NC(=O)[C@@H]1C[C@@H](Oc2cc(-c3ccccc3)nc3ccc(OC)cc23)CN1C(=O)[C@@H](NC(=O)[C@@H](NC(C)=O)C1CCCCC1)C(C)C)C(=O)O | – |
| 30 | C=C[C@@H]1C[C@]1(NC(=O)[C@@H]1C[C@@H](Oc2cc(-c3ccccc3)nc3cc(OC)ccc23)CN1C(=O)[C@@H](NC(=O)OC1CCCCC1)C(C)(C)C)C(=O)O | EC50 (Hepatitis C virus): 460 nM |
| 170 | C=C[C@@H]1C[C@]1(NC(=O)[C@@H]1C[C@@H](Oc2ccnc3ccccc23)CN1C(=O)[C@@H](NC(=O)[C@@H](NC(C)=O)C1CCCCC1)C(C)C)C(=O)O (Ac-[Chg]V[Hyp(quinolin-4-yl)][Ac3c(1R,2S-2-vinyl)]-OH) | – |
| 228 | C=C[C@@H]1C[C@]1(NC(=O)[C@@H]1C[C@@H](Oc2cc(-c3ccccc3)nc3cc(OC(C)C)ccc23)CN1C(=O)[C@@H](NC(=O)OC(C)(C)C)C(C)(C)C)C(=O)O | – |
| 13 | C=C[C@@H]1C[C@]1(NC(=O)[C@@H]1C[C@@H](Oc2cc(-c3ccccc3)nc3ccccc23)CN1C(=O)[C@@H](NC(=O)[C@@H](NC(C)=O)C1CCCCC1)C(C)C)C(=O)O (Ac-[Chg]V[Hyp(2-Ph-quinolin-4-yl)][Ac3c(1R,2S-2-vinyl)]-OH) | IC50 (Cathepsin B): > 30000 nM; IC50 (Neutrophil elastase): > 30000 nM |
| 13 | C=C[C@@H]1C[C@]1(NC(=O)[C@@H]1C[C@@H](Oc2cc(-c3ccccc3)nc3c(OC)c(OC)ccc23)CN1C(=O)[C@@H](NC(=O)[C@@H](NC(C)=O)C1CCCCC1)C(C)C)C(=O)O | – |
| 148 | C=C[C@@H]1C[C@]1(NC(=O)[C@@H]1C[C@@H](Oc2cc(-c3ccccc3)nc3cc(OC)ccc23)CN1C(=O)[C@@H](OC(=O)NC1CCCC1)C(C)(C)C)C(=O)O | – |
| 2 | C=C[C@@H]1C[C@]1(NC(=O)[C@@H]1C[C@@H](Oc2cc(-c3ccccc3)nc3cc(OC)ccc23)CN1C(=O)[C@@H](NC(=O)[C@@H](NC(C)=O)C1CCCCC1)C(C)C)C(=O)O | – |
| 828 | C=C[C@@H]1C[C@]1(NC(=O)[C@@H]1C[C@@H](Oc2cc(-c3ccccc3)nc3cc(C(F)(F)F)ccc23)CN1C(=O)[C@@H](NC(=O)OC(C)(C)C)C(C)(C)C)C(=O)O | – |
| 282 | C=C[C@@H]1C[C@]1(NC(=O)[C@@H]1C[C@@H](Oc2cc(-c3ccccc3)nc3cc(F)ccc23)CN1C(=O)[C@@H](NC(=O)OC(C)(C)C)C(C)(C)C)C(=O)O | – |
